Experimental data reported in ChEMBL document CHEMBL3627692, “Inhibition of mammalian carbonic anhydrase isoforms I-XIV with a series of phenolic acid esters” (Bioorg Med Chem, 2015).
pKi: −log10 of the molar value.

How the values were obtained:
[1] = biological target: Carbonic anhydrase 2 (Homo sapiens, UniProt P00918); assay: Inhibition of human carbonic anhydrase 2 preincubated for 15 mins by stopped-flow CO2 hydration assay
[2] = biological target: Carbonic anhydrase 3 (Homo sapiens, UniProt P07451); assay: Inhibition of human carbonic anhydrase 3 preincubated for 15 mins by stopped-flow CO2 hydration assay
[3] = biological target: Carbonic anhydrase 1 (Homo sapiens, UniProt P00915); assay: Inhibition of human carbonic anhydrase 1 preincubated for 15 mins by stopped-flow CO2 hydration assay
[4] = biological target: Carbonic anhydrase 9 (Homo sapiens, UniProt Q16790); assay: Inhibition of human catalytic domain of carbonic anhydrase 9 preincubated for 15 mins by stopped-flow CO2 hydration assay
[5] = biological target: Carbonic anhydrase 13 (Mus musculus, UniProt Q9D6N1); assay: Inhibition of mouse carbonic anhydrase 13 preincubated for 15 mins by stopped-flow CO2 hydration assay
[6] = biological target: Carbonic anhydrase 6 (Homo sapiens, UniProt P23280); assay: Inhibition of human carbonic anhydrase 6 preincubated for 15 mins by stopped-flow CO2 hydration assay
[7] = biological target: Carbonic anhydrase 5B, mitochondrial (Homo sapiens, UniProt Q9Y2D0); assay: Inhibition of human carbonic anhydrase 5B preincubated for 15 mins by stopped-flow CO2 hydration assay
[8] = biological target: Carbonic anhydrase 14 (Homo sapiens, UniProt Q9ULX7); assay: Inhibition of human carbonic anhydrase 14 preincubated for 15 mins by stopped-flow CO2 hydration assay
[9] = biological target: Carbonic anhydrase 7 (Homo sapiens, UniProt P43166); assay: Inhibition of human carbonic anhydrase 7 preincubated for 15 mins by stopped-flow CO2 hydration assay
[10] = biological target: Carbonic anhydrase 4 (Homo sapiens, UniProt P22748); assay: Inhibition of human carbonic anhydrase 4 preincubated for 15 mins by stopped-flow CO2 hydration assay
[11] = biological target: Carbonic anhydrase 12 (Homo sapiens, UniProt O43570); assay: Inhibition of human catalytic domain of carbonic anhydrase 12 preincubated for 15 mins by stopped-flow CO2 hydration assay
[12] = biological target: Carbonic anhydrase 5A, mitochondrial (Homo sapiens, UniProt P35218); assay: Inhibition of human carbonic anhydrase 5A preincubated for 15 mins by stopped-flow CO2 hydration assay
Sequence of Carbonic anhydrase 5A, mitochondrial (P35218 whole entry): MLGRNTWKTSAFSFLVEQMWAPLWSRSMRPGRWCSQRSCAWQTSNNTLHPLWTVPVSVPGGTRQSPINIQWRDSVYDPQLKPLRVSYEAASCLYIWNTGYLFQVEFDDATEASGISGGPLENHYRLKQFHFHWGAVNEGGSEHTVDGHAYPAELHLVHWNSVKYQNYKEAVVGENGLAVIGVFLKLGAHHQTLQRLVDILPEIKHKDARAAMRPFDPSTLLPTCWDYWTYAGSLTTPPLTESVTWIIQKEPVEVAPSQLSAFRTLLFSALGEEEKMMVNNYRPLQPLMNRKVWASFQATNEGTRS

Sequence of Carbonic anhydrase 1 (P00915 whole entry, the tested form may be a part): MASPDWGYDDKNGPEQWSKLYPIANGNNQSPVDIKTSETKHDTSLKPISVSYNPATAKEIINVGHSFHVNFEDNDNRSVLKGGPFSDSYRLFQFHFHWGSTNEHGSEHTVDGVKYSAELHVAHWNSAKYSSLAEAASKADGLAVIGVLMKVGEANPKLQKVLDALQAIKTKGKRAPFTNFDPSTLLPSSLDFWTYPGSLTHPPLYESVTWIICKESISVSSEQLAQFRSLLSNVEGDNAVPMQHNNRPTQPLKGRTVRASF
Sequence of Carbonic anhydrase 13 (Q9D6N1 whole entry): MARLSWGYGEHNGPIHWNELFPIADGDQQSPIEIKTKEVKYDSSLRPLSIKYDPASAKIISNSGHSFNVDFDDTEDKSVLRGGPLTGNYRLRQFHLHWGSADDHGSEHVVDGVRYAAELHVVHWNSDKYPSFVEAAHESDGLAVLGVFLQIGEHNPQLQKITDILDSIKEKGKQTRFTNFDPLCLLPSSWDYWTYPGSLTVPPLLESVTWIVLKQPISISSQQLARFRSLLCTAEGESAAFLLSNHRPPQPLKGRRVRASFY
Sequence of Carbonic anhydrase 3 (P07451 whole entry): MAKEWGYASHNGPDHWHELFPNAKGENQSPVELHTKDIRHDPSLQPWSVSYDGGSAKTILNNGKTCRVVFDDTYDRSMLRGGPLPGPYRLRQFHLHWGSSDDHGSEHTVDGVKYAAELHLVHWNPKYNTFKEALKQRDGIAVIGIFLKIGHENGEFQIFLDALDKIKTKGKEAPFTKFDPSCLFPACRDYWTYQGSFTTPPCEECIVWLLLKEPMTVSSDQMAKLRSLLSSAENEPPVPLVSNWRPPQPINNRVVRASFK
Sequence of Carbonic anhydrase 12 (O43570 whole entry, the tested form may be a part): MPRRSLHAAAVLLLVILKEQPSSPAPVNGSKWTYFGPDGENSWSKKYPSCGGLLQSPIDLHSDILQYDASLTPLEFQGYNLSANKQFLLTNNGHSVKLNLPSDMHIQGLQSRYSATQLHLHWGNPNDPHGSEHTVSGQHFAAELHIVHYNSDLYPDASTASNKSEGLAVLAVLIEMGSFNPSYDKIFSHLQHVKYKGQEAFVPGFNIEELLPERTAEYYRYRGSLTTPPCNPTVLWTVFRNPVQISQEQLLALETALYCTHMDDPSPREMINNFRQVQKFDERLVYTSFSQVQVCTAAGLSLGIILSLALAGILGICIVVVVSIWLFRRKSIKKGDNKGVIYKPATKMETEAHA
Sequence of Carbonic anhydrase 6 (P23280 whole entry): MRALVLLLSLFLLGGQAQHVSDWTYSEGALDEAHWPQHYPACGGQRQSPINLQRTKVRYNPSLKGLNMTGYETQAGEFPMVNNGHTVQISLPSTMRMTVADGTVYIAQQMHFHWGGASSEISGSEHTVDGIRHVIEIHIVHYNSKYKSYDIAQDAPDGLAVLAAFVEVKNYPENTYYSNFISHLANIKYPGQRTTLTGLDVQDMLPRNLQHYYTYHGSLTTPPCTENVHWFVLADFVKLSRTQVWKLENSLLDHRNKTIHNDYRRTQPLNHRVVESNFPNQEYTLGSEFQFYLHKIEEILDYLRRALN
Sequence of Carbonic anhydrase 4 (P22748 whole entry, the tested form may be a part): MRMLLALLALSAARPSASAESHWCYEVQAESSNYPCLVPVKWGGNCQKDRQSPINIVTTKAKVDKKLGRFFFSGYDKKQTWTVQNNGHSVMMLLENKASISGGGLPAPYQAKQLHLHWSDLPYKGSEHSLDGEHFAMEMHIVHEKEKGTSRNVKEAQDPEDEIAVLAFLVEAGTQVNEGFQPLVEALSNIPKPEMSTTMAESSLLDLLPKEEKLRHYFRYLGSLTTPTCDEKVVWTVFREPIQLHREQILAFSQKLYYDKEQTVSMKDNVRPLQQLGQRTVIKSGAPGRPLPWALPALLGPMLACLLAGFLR
Sequence of Carbonic anhydrase 14 (Q9ULX7 whole entry): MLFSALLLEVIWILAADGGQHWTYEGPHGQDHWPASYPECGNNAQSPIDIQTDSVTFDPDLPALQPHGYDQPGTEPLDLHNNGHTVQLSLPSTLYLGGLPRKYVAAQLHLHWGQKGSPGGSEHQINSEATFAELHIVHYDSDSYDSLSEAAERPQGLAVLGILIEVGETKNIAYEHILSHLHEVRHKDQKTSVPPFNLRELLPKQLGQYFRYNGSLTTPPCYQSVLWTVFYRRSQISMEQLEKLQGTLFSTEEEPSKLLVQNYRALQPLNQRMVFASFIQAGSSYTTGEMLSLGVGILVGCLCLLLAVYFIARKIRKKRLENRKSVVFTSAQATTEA
Sequence of Carbonic anhydrase 5B, mitochondrial (Q9Y2D0 whole entry): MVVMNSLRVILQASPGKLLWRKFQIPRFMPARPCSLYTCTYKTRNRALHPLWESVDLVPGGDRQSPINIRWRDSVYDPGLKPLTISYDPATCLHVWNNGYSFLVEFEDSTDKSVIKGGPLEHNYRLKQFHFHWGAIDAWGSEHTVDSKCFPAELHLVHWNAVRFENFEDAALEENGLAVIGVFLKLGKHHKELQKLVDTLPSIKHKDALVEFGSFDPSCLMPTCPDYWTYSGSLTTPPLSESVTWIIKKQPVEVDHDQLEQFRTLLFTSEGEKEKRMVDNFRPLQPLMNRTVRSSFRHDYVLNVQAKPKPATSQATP
Sequence of Carbonic anhydrase 7 (P43166 whole entry): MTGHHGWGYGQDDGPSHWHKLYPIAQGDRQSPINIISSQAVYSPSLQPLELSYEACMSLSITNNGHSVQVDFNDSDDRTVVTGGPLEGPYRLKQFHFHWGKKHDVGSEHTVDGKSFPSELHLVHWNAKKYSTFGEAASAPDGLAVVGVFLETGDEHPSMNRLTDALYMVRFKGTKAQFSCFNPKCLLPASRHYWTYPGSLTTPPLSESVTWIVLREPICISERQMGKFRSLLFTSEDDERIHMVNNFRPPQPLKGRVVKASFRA

Structure (SMILES)	pKi [1]	pKi [2]	pKi [3]	pKi [4]	pKi [5]	pKi [6]	pKi [7]	pKi [8]	pKi [9]	pKi [10]	pKi [11]	pKi [12]
COc1cc(/C=C/C(=O)OCc2ccccc2)ccc1O [BENZYL FERULATE]	< 4.30	< 4.30	< 4.30	5.99	6.03							
O=C(/C=C/c1ccc(O)cc1)OCCc1cccc(O)c1	< 4.30	< 4.30	5.44	6.09	4.94							
O=C(/C=C/c1ccc(O)c(O)c1)OCCc1ccc(OCCc2ccc(O)cc2)cc1	< 4.30	< 4.30	5.28	6.03	6.08							
COc1cc(/C=C/C(=O)OCCc2ccc(O)cc2)ccc1O	< 4.30	< 4.30	< 4.30	6.09	6.03							

The remaining lines, values ahead:

pKi [1]	pKi [2]	pKi [3]	pKi [4]	pKi [5]	pKi [6]	pKi [7]	pKi [8]	pKi [9]	pKi [10]	pKi [11]	pKi [12]	Structure (SMILES)
< 4.30	< 4.30	< 4.30	6.00	6.04								COc1cc(/C=C/C(=O)OCCc2cccc(O)c2)ccc1O
< 4.30	< 4.30	5.02	6.01	6.05								O=C(/C=C/c1ccc(O)c(O)c1)OCCc1cccc(OCCc2cccc(O)c2)c1
< 4.30	< 4.30	5.41	6.15	4.86								O=C(/C=C/c1ccc(O)cc1)OCCc1ccc(O)cc1
< 4.30	< 4.30	< 4.30	6.07	5.05	6.14	6.10	6.09	6.14	4.73	4.53	6.01	O=C(/C=C/c1ccc(O)cc1)OCc1ccccc1
